Assay results from patent publication US8435790B2, “Methods of modulating lipid concentrations in eukaryotic cells” (The Regents of the University of California, priority 2008, dated 2013).

Key:
[1] = test system: Drosophila S2 cells; test: Cellular triacylglycerol (TG) content of S2 cells; format: cell-based; details: S2 cells incubated with 1 mM oleate for 24 hours; means of three experiments, P<0.05
Procedure: FIG. 1A is series of micrographs of S2 cells incubated for 24 hours without (upper) or with (lower) 1 mM oleate. Staining with BODIPY, phase-contrast image, and overlay are shown. FIG. 1B is a graph showing that oleate-loaded cells have an increased triacylglycerol (TG) content. Cells were incubated as in FIG. 1a and their TG (triglyceride) contents were measured. Results are means and s.d. for three experiments; P<0.05. FIG. 1C is a series of micrographs showing that lipid droplet formation occurs in steps. Single cells were followed by four-dimensional confocal time-lapse photography. Representative maximum projections of three-dimensional stacks at the indicated times are shown. Scale bar is 3 μm.
Lipid measurements. Cells were cultured in 6-well plates (16 μg dsRNAs each well) for 3 days, and then 1 mM oleate was added for 24 hours. Cells were lysed in 50 mM Tris-HCl (pH 7.4), 0.25 M sucrose, and samples (250 μg protein) were assayed for lipids. PC was quantified with a colorimetric method^29. TG content was measured from extracted lipids by TLC^30.

[2] = test system: Drosophila S2 cells; test: Lipid-droplet formation in S2 cells, BODIPY staining and microscopy; format: cell-based; details: S2 cells incubated with 1 mM oleate for 24 hours
Procedure: Lipid-droplet formation in Drosophila Schneider 2 (S2) cells is an excellent system for functional genomic studies with efficient gene inactivation by RNAi^6. In the exemplified methods below, lipid-droplet formation was induced by incubation with 1 mM oleate for 24 hours. […] BODIPY-stained fluorescent signals corresponded to lipid droplets with a red fluorescent protein mCherry^7 fused with LSD1, which localizes exclusively to the surface of lipid droplets^3 (not shown).
Cell culture. Drosophila S2 cells were cultured in Schneider's Drosophila medium (Invitrogen) supplemented with 10% fetal bovine serum and antibiotics (100 unit/ml penicillin and 100 μg/ml streptomycin) at 25° C. as described^32. RNAi treatment of S2 cells were performed as previously described^10. A segment of pBluescript backbone was used as the template for control RNAi (referred as control RNAi thereafter). Transfection of S2 cells was performed using Cellfectin reagent (Invitrogen). Images of live cells were taken using LSM 510 confocal microscope (Carl Zeiss MicroImaging) with a 63× oil immersion lens.
Image analyses. S2 cells (2.7×10^6 cells/ml) were treated with 1 μg dsRNA in 96-well plates for 3 days, and 1 mM oleic acid was added for 24 h. Cells were fixed in 4% paraformaldehyde/PBS (1 h) and stained with DAPI and BODIPY493/503 in PBS (1 h). […]

CCCCCCCC/C=C\CCCCCCCC(=O)O [oleate, Oleic acid]
cellular triacylglycerol (TG) content [1]: increased sevenfold | lipid droplet size, number, and overall volume (BODIPY staining) [2]: increased
